Experiments:
[1] = plasma concentration in rats after intravenous administration; assay type: in vivo; settings: rat
Description: (§2) A physiological NaCl solution of the substance to be tested was submitted to high pressure liquid chromatography (HPLC) in order to determine its characteristic substance-specific retention time with the chosen test conditions.
(§3) The substance to be tested was diluted in vitro in rat plasma. This solution was also submitted to HPLC to see whether the characteristic peak of the substance once again appeared at the substance-specific retention time.
(§4) Blood samples were taken at time intervals of 15 minutes, from which plasma samples were prepared by centrifugation; those samples were also submitted to HPLC to see whether the characteristic peak of the substance appeared again at the substance-specific retention time.
(§5) After administration, blood samples were taken from the test animals at time intervals from 2 to maximally 360 minutes and the blood level of the compounds to be tested was determined by HPLC.

[2] = plasma concentration in rats after oral administration; assay type: in vivo; settings: rat, oral
Description: as §2, §3, §4, §5

[3] = plasma concentration in rats after rectal administration; assay type: in vivo; settings: plasma, rat, rectal 20 mg/kg
in vivo = settings: rat, intraduodenal 100 mg/kg; for Concentration in plasma: hydrochloride, 100 mg/kg
[4] = system: coagulation in rat plasma; experiment: thrombin time in rat plasma after rectal application; assay type: in vivo
Description: (§1) After rectal administration of the compounds to be tested, the anticoagulant effect was determined in the plasma of experimental animals.

[5] = system: coagulation in rat plasma; experiment: aPTT in rat plasma after rectal application; assay type: in vivo
Description: as §1

[6] = concentration in rat plasma in the anticoagulant study after rectal application; assay type: in vivo; settings: for concentration at 0.5 h / concentration at 1 h / concentration at 2 h / concentration at 3 h: plasma; for concentration at 0.5 h: 30 min; for concentration at 1 h: 60 min; for concentration at 2 h: 120 min; for concentration at 3 h: 180 min; for Concentration in plasma: 0 min
[7] = system: coagulation in human plasma; experiment: thrombin time (TT) in human plasma
tPA = tPA (Homo sapiens, UniProt P00750); experiment: inhibition of tPA, dissociation constant Ki
Sequence of tPA (P00750 36-562): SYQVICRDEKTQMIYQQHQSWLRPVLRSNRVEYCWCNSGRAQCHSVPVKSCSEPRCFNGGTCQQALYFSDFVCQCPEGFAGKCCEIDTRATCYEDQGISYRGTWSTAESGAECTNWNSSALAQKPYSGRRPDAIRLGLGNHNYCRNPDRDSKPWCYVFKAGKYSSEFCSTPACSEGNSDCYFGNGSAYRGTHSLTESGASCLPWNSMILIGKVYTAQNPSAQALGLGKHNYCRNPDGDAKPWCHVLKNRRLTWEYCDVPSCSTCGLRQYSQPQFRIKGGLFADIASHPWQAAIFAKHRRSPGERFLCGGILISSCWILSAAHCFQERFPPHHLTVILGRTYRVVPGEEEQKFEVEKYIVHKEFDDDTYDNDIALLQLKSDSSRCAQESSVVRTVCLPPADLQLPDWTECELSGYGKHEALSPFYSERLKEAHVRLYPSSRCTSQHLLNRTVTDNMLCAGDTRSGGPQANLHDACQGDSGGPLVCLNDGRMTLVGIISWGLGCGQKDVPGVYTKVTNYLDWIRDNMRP

plasmin = plasmin (Homo sapiens, UniProt P00747); experiment: inhibition of plasmin, dissociation constant Ki
Sequence of plasmin (P00747 581-810 limits assumed): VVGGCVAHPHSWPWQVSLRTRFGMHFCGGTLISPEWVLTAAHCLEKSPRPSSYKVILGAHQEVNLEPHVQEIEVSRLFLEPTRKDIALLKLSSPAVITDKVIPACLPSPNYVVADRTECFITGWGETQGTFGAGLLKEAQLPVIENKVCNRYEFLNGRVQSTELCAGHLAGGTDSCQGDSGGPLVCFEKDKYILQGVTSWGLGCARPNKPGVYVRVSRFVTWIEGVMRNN
Sequence of plasmin (P00747 97-580 partner limits assumed): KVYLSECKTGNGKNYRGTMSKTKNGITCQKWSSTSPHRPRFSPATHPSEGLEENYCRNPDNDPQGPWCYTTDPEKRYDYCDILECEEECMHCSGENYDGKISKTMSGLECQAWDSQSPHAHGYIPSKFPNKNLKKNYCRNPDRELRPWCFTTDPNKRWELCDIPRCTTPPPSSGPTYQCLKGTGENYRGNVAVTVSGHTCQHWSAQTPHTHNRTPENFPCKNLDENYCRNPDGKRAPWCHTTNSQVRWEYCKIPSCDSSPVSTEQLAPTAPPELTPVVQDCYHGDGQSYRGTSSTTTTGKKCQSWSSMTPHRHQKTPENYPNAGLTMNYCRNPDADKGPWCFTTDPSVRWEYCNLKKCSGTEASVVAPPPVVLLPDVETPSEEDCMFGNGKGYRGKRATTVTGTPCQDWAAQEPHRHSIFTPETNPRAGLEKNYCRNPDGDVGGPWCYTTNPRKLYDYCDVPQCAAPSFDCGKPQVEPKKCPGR

[8] = system: coagulation in human plasma; experiment: prothrombin time (PT, Quick value) in human plasma
factor XIIa = target: T1, factor XIIa (Homo sapiens, UniProt P00748); experiment: inhibition of factor XIIa, dissociation constant Ki
T1 sequence (P00748 373-615 limits assumed): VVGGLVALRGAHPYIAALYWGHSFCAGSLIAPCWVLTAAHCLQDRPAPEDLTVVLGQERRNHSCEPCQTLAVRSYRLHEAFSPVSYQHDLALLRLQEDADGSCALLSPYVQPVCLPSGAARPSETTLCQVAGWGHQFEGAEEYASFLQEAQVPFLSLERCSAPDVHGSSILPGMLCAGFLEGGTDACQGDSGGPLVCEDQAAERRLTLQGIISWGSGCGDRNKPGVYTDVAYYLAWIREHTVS

plasma kallikrein = plasma kallikrein (Homo sapiens, UniProt P03952); experiment: inhibition of plasma kallikrein, dissociation constant Ki
Sequence of plasma kallikrein (P03952 391-638 limits assumed, species assumed): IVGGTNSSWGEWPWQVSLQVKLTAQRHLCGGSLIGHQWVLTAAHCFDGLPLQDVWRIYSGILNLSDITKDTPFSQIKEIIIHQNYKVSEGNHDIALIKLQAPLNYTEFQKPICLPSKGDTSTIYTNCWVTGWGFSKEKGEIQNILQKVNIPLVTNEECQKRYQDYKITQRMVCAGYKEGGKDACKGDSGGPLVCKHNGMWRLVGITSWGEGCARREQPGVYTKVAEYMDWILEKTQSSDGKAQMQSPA
Sequence of plasma kallikrein (P03952 20-390 partner limits assumed, species assumed): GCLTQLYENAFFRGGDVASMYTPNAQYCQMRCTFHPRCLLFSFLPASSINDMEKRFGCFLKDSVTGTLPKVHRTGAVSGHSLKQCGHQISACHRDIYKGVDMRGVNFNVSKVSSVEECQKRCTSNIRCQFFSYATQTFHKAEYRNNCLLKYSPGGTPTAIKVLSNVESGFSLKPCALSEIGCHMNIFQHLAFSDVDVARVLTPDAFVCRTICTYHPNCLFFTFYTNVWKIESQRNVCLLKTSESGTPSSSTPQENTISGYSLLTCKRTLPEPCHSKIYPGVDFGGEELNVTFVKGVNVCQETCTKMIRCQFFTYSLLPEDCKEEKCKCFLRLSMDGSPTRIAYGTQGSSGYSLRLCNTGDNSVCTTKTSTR

glandular kallikrein = glandular kallikrein (Sus scrofa, UniProt P00752); experiment: inhibition of glandular kallikrein, dissociation constant Ki
Sequence of glandular kallikrein (P00752 8-246): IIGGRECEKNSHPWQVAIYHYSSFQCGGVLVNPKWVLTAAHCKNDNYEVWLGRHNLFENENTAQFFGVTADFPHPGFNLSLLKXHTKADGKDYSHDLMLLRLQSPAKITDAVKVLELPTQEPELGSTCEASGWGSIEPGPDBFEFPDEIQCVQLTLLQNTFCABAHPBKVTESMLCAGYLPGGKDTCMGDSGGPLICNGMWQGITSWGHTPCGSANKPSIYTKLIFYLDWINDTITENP

[9] = system: coagulation in human plasma; experiment: activated partial thromboplastin time (aPTT) in human plasma
trypsin = target: T2, trypsin (Bos taurus, UniProt P00760); experiment: inhibition of trypsin, dissociation constant Ki; assay type: biochemical; parameters: thrombin and the related enzymes trypsin, plasmin, factor Xa, factor XIIa; settings: Table 1; read-out: Ki, Trypsin
T2 sequence (P00760 24-246): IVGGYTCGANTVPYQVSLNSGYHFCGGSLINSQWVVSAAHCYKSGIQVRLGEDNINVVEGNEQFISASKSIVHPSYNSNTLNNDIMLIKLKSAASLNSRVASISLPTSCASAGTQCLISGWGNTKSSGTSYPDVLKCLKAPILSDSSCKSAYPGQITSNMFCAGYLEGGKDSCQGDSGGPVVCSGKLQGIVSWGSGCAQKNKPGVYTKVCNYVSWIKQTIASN
Description: The biological activity of the compounds of the present invention was determined in vitro as well as in vivo.

CS(=O)(=O)N1CCN(C(=O)[C@H](Cc2cccc(C(=N)N)c2)NS(=O)(=O)c2ccc3ccccc3c2)CC1.Cl [Compound 5, Nα-(2-naphthylsulfonyl)-3-amidino-(L)-phenylalanine-4methylsulfonylpiperazide hydrochloride]
concentration at 5 min ([1]; plasma, iv, i.v. 1 mg/kg, 5 min): 879 ng/mL
concentration at 0.25 h ([1]; plasma, iv, i.v. 1 mg/kg, 15 min): 367 ng/mL
concentration at 0.5 h ([1]; plasma, iv, i.v. 1 mg/kg, 30 min): 151 ng/mL
concentration at 1 h ([1]; plasma, iv, i.v. 1 mg/kg, 60 min): 50 ng/mL
elimination in words ([1]; i.v.): eliminated at comparable rate
Concentration in plasma ([1]; i.v. 1 mg/kg, 120 min): 0 ng/mL
Concentration in plasma ([1]; i.v. 1 mg/kg, 180 min): 0 ng/mL
resorption in words [2]: only slightly resorbed
concentration at 0.5 h ([3]; 30 min): 1650 ng/mL
concentration at 1 h ([3]; 60 min): 958 ng/mL
concentration at 2 h ([3]; 120 min): 299 ng/mL
concentration at 3 h ([3]; 180 min): 192 ng/mL
concentration at 3 h (in vivo; plasma, 180 min): 297 ng/mL
concentration at 4 h (in vivo; plasma, 240 min): 530 ng/mL
concentration at 5 h (in vivo; plasma, 300 min): 137 ng/mL
concentration at 6 h (in vivo; plasma, 360 min): 119 ng/mL
Concentration in plasma (in vivo; 30 min): 8744 ng/mL
Concentration in plasma (in vivo; 30 min, listed as 5*): 1576 ng/mL
Concentration in plasma (in vivo; 60 min): 9314 ng/mL
Concentration in plasma (in vivo; 60 min, listed as 5*): 1900 ng/mL
Concentration in plasma (in vivo; 120 min): 8612 ng/mL
Concentration in plasma (in vivo; 120 min, listed as 5*): 1763 ng/mL
Clotting time, Thrombin time ([4]; rectal 5 mg/kg, 0 min): 51.5 s
Clotting time, Thrombin time ([4]; rectal 5 mg/kg, 30 min): > 300 s
Clotting time, Thrombin time ([4]; rectal 5 mg/kg, 60 min): 255 s
Clotting time, Thrombin time ([4]; rectal 5 mg/kg, 120 min): 137.5 s
Clotting time, Thrombin time ([4]; rectal 5 mg/kg, 180 min): 95 s
Clotting time, Thrombin time ([4]; rectal 20 mg/kg, 0 min): 153 s
Clotting time, Thrombin time ([4]; rectal 20 mg/kg, 30 min): > 300 s
Clotting time, Thrombin time ([4]; rectal 20 mg/kg, 60 min): > 300 s
Clotting time, Thrombin time ([4]; rectal 20 mg/kg, 120 min): > 300 s
Clotting time, Thrombin time ([4]; rectal 20 mg/kg, 180 min): > 300 s
Clotting time, aPTT ([5]; rectal 5 mg/kg, 0 min): 21.2 s
Clotting time, aPTT ([5]; rectal 5 mg/kg, 30 min): 34.5 s
Clotting time, aPTT ([5]; rectal 5 mg/kg, 60 min): 30.5 s
Clotting time, aPTT ([5]; rectal 5 mg/kg, 120 min): 27.5 s
Clotting time, aPTT ([5]; rectal 5 mg/kg, 180 min): 25.3 s
Clotting time, aPTT ([5]; rectal 20 mg/kg, 0 min): 22 s
Clotting time, aPTT ([5]; rectal 20 mg/kg, 30 min): 65 s
Clotting time, aPTT ([5]; rectal 20 mg/kg, 60 min): 62.5 s
Clotting time, aPTT ([5]; rectal 20 mg/kg, 120 min): 36 s
Clotting time, aPTT ([5]; rectal 20 mg/kg, 180 min): 29.7 s
concentration at 0.5 h ([6]; rectal 5 mg/kg): 168 ng/mL
concentration at 1 h ([6]; rectal 5 mg/kg): 65 ng/mL
concentration at 2 h ([6]; rectal 5 mg/kg): 82 ng/mL
concentration at 3 h ([6]; rectal 5 mg/kg): 10 ng/mL
concentration at 0.5 h ([6]; rectal 20 mg/kg): 1570 ng/mL
concentration at 1 h ([6]; rectal 20 mg/kg): 983 ng/mL
concentration at 2 h ([6]; rectal 20 mg/kg): 380 ng/mL
concentration at 3 h ([6]; rectal 20 mg/kg): 195 ng/mL
Concentration in plasma ([6]; rectal 5 mg/kg): 0 ng/mL
Concentration in plasma ([6]; rectal 20 mg/kg): 0 ng/mL
Concentr. to double the Thrombin time [7]: 0.034 µmol/L
concentration to double the TT [7]: less than 10^-7 mol/1
Ki (tPA): 190 µM
Ki (plasmin): 9 µM
Concentr. to double the Prothrombin time [8]: 0.39 µmol/L
concentration to double the PT [8]: ≤ 1 μmol/1
Ki (factor XIIa): 52 µM
Ki (plasma kallikrein): 9.2 µM
Ki (glandular kallikrein): > 1000 µM
Concentr. to double the aPTT [9]: 0.26 µmol/L
concentration to double the aPTT [9]: ≤ 1 μmol/1
Ki (trypsin): 0.067 µM
